Legend:
rat hippocampal slices [1] = test: epileptiform responses in hippocampal slices induced by high-K+/low-Ca2+ fluid (HKLCF); format: cell-based, Sprague-Dawley rats; design: rate of spontaneous field bursting: dose or concentration left out as unconfirmed; conditions: for evoked epileptiform responses (PS1 amplitude, repetitive PSs per evoked burst): CA3 area, fimbrial stimulation, HKLCF perfusion; for rate of spontaneous field bursting: HKLCF
Procedure: The effect of brivaracetam on epileptiform responses induced by high-K+/low-Ca2+ concentrations or by bicuculline was examined in transverse hippocampal slices prepared from Sprague-Dawley rats according to previously reported standard procedures. The epileptiform responses were induced by passing from a normal perfusion of artificial cerebrospinal fluid (ACSF) (K+ 3 mM; Ca2+ 2.4 mM) to either high-K+/low-Ca2+ fluid (HKLCF) (K+ 7.5 mM; Ca2+ 0.5 mM) or to 5 M bicuculline methiodide (BMI)-containing ACSF.
Extracellular field potentials (FPs) were recorded in the CA3 area of the slices with 2 M NaCl-filled glass microelectrodes. The evoked FPs were recorded at 10-min intervals in response to fimbrial stimulation with constant current rectangular pulses that elicit a single population spike (PS) of 50-75% of the maximal amplitude when the slice is in ACSF. In the HKLCF model, 2 min of spontaneous activity were also recorded, in the middle of each 10-min interval between the recordings of evoked responses.
Either brivaracetam or levetiracetam was added to the bathing fluid of the slices 20 min before shifting from ACSF to either HKLCF or […] BMI-containing ACSF, and was kept in the perfusion fluid throughout the experiment.

[2] = system: fully amygdala-kindled rats; test: fully amygdala-kindled rats; format: in vivo; conditions: for dose from which significant suppression in motor-seizure severity was induced: rat, in vivo
[3] = system: genetically sound-sensitive male mice; test: audiogenic seizures in mice; format: in vivo; conditions: acoustic stimulus 90 dB, 30 s; brivaracetam i.p. 30 min, levetiracetam i.p. 60 min before
Procedure: Audiogenic seizures in mice: Genetically sound-sensitive male mice (16-28 g; n=10 per group), responding with wild running, clonic and tonic convulsions to an acoustic stimulation, were used. Audiogenic seizures were induced by an acoustic stimulus (90 dB, 10-20 kHz) applied for 30 s. The mice were pretreated with either saline, brivaracetam (i.p., 30 min) or levetiracetam (i.p., 60 min), and the proportion of mice protected against clonic convulsions was used as the end point to assess anticonvulsant activity.

mice [4] = test: chemically induced seizures in mice (pentylenetetrazol); format: in vivo; conditions: i.p. 30 min before seizure induction; pentylenetetrazol 83 mg kg-1 s.c.; higher ED50 than audiogenic
Procedure: The dose was selected based on dose-effect curves in saline-treated animals as the convulsive dose inducing clonic convulsions of all four extremities in 97% of the animals. Immediately after administration of the chemoconvulsant, the mice were placed individually in small plastic cages (25 13 8 cm) and observed for the presence of clonic convulsions in all four extremities, for 60 min. The occurrence of tonic convulsions (hindlimb extension) and mortality was also recorded during this interval. The proportion of mice protected against clonic convulsions was calculated and used as the end point for anticonvulsant activity.

mice [5] = test: maximal electroshock in mice; format: in vivo; conditions: i.p. 30 min before seizure induction; higher ED50 than audiogenic
GAERS rats = test: spontaneous SWDs in GAERS rats; format: in vivo; conditions: for dose from which spontaneous SWDs were significantly suppressed: rat, in vivo
mice [6] = test: corneal kindling of mice; format: in vivo; conditions: continued corneal stimulations after termination of treatment; group previously treated with the highest dose
rat hippocampal slices [7] = conditions: background statement; cited from earlier work
rat hippocampal slices [8] = conditions: background statement; cited from earlier work; remark: listed apart in the source

Structure (SMILES) | evoked epileptiform responses (PS1 amplitude, repetitive PSs per evoked burst) (rat hippocampal slices [1]) | rate of spontaneous field bursting (rat hippocampal slices [1]) | after-discharge duration ([2]; highest dose tested, 212.3 mg kg-1) | dose from which significant suppression in motor-seizure severity was induced [2] [mg/kg] | protection against the expression of clonic convulsions [3] | protection against clonic convulsions induced by pentylenetetrazol (mice [4]) | protection against tonic hindlimb extension induced by a maximal electroshock (mice [5]) | inhibition of spontaneous SWDs (GAERS rats; highest dose tested, 67.9 mg kg-1) | dose from which spontaneous SWDs were significantly suppressed (GAERS rats) [mg/kg] | incidence of generalized motor seizures (mice [6]) | solubility (water solubility) [mg/mL] | after-discharge duration ([2]; up to 1700 mg kg-1) | epileptiform responses induced by high-K+/low-Ca2+ concentrations (rat hippocampal slices [7]) | epileptiform responses induced by bicuculline (rat hippocampal slices [8])
CCC[C@@H]1CC(=O)N([C@@H](CC)C(N)=O)C1 [Brivaracetam, (2S)-2-[(4R)-2-oxo-4-propyl-pyrrolidin-1-yl] butanamide] | reduced | reduced | significantly reduced | ≥ 21.2 | protected | protected | protected | complete inhibition | ≥ 2.1 | persistent reduction | > 500 |  |  | 
CC[C@@H](C(N)=O)N1CCCC1=O [Levetiracetam, (S)-(−)-alpha-ethyl-2-oxo-1-pyrrolidine acetamide] | reduced | not |  | ≥ 170 | protected |  |  |  | ≥ 5.4 |  |  | inactive | reduces | reduces
CC[C@@H](C(N)=O)N1C[C@H](C=C(F)F)CC1=O [Seletracetam, (2S)-2-[(4S)-4-(2,2-difluorovinyl)-2-oxo-pyrrolidin-1-yl]butanamide] |  |  |  |  |  |  |  |  |  |  | > 500 |  |  | 

Source: patent US8460712B2, “Prolonged release formulations comprising an 2-oxo-1-pyrrolidine derivate” (UCB Pharma, S.A., priority 2008, dated 2013)
